Values of other authors, collected in patent publication US8440172B2, “Stable soluble salts of phenylbenzimidazole sulfonic acid at PHS at or below 7.0” (Symrise AG, priority 2007, dated 2013).

Experiments:
[1] = free acid, not neutralised

SMILES: O=S(=O)(O)c1ccc2nc(-c3ccccc3)[nH]c2c1 [phenylbenzimidazole sulfonic acid, 2-phenylbenzimidazole-5-sulfonic acid]
- pH of cosmetic formulation needed to prevent the free acid from recrystallising (Johncock, Cosmetic & Toiletries Magazine 1999): above 6.8
- pH at which crystal formation starts (cosmetic formulation, Johncock 1999): 7.0
- solubility in water [1]: 0.25 % w/w
